What was measured:
Experiment in all cases: relative viability (nuclei count vs DMSO), 5 days (fraction); higher = more cells survive
[1] = compound: CC1=C(C(=NN1)C)CC2=C(C3=C(S2)N(C(=O)N(C3=O)C)CC(C)C)C(=O)N4C[C@@H](CO4)O + COc1cc2c(Oc3ccc(NC(=O)C4(C(=O)Nc5ccc(F)cc5)CC4)cc3F)ccnc2cc1OCCCN1CCOCC1 [Foretinib] (partner 0.25 µM)
Procedure, shortened: (§1)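 Lung cancer cell lines, seeded in 1536-well plates, were treated the following day by pin tool with a single drug or with five library-drug doses (not always all listed) in √10 steps on top of a fixed anchor-drug dose. Cells were fixed and nuclei stained in one step after 5 days, and nuclei were counted. Relative viability is the nuclei count for treated wells divided by that for vehicle wells, reported as medians of duplicate plates.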

IDH-C35 + OSI-027 = compound: Cc1ccccc1C(C(=O)NC1CCCCC1)N(C(=O)Cn1ccnc1C)c1cccc(F)c1 [IDH-C35] + COc1cccc2cc(-c3nc([C@H]4CC[C@H](C(=O)O)CC4)n4ncnc(N)c34)[nH]c12 [OSI-027] (partner 0.5 µM)
Procedure, shortened: as §1

IDH-C35 + Lapatinib = compound: Cc1ccccc1C(C(=O)NC1CCCCC1)N(C(=O)Cn1ccnc1C)c1cccc(F)c1 [IDH-C35] + CS(=O)(=O)CCNCc1ccc(-c2ccc3ncnc(Nc4ccc(OCc5cccc(F)c5)c(Cl)c4)c3c2)o1 [Lapatinib] (partner 2 µM)
Procedure, shortened: as §1

IDH-C35 + Pemetrexed = compound: Cc1ccccc1C(C(=O)NC1CCCCC1)N(C(=O)Cn1ccnc1C)c1cccc(F)c1 [IDH-C35] + Nc1nc2[nH]cc(CCc3ccc(C(=O)N[C@@H](CCC(=O)O)C(=O)O)cc3)c2c(=O)[nH]1 [Pemetrexed] (partner 0.2 µM)
Procedure, shortened: as §1

Cell Line | relative viability ([1]; first compound 0.0025 µM) | relative viability ([1]; first compound 0.007906 µM) | relative viability ([1]; first compound 0.025 µM) | relative viability ([1]; first compound 0.07906 µM) | relative viability ([1]; first compound 0.25 µM) | relative viability (IDH-C35 + OSI-027; first compound 0.08 µM) | relative viability (IDH-C35 + OSI-027; first compound 0.253 µM) | relative viability (IDH-C35 + OSI-027; first compound 0.8 µM) | relative viability (IDH-C35 + OSI-027; first compound 2.53 µM) | relative viability (IDH-C35 + OSI-027; first compound 8 µM) | relative viability (IDH-C35 + Lapatinib; first compound 0.08 µM) | relative viability (IDH-C35 + Lapatinib; first compound 0.253 µM) | relative viability (IDH-C35 + Lapatinib; first compound 0.8 µM) | relative viability (IDH-C35 + Lapatinib; first compound 2.53 µM) | relative viability (IDH-C35 + Lapatinib; first compound 8 µM) | relative viability (IDH-C35 + Pemetrexed; first compound 0.08 µM) | relative viability (IDH-C35 + Pemetrexed; first compound 0.253 µM) | relative viability (IDH-C35 + Pemetrexed; first compound 0.8 µM) | relative viability (IDH-C35 + Pemetrexed; first compound 2.53 µM) | relative viability (IDH-C35 + Pemetrexed; first compound 8 µM)
HCC-78 | 0.579 | 0.572 | 0.601 | 0.527 | 0.563 | 0.349 | 0.362 | 0.633 | 0.388 | 0.332 | 1.02 | 0.732 | 0.841 | 0.606 | 0.355 | 0.918 | 0.918 | 0.897 | 0.912 | 0.943
HCC-366 | 0.918 | 0.932 | 0.905 | 0.771 | 0.958 | 0.968 | 0.955 | 0.806 | – | 0.785 | 1.12 | 1.03 | 1.04 | 1.08 | 1.12 | 0.143 | 0.156 | 0.171 | 0.188 | 0.176
HCC-827 | 1.02 | 1.09 | 1.01 | 1.02 | 1.02 | 0.78 | 0.662 | 0.694 | 0.71 | 0.771 | 0.183 | 0.211 | 0.173 | 0.218 | 0.228 | 0.279 | 0.266 | 0.269 | 0.248 | 0.238
HOP-62 | 1.2 | 1.09 | 1.04 | 1.06 | 1.09 | 0.895 | 0.801 | 0.76 | 0.79 | 0.78 | 0.945 | 1.06 | 1.01 | – | 0.948 | 0.302 | 0.309 | 0.255 | 0.338 | 0.346
IA-LM | 1.25 | 1.01 | 1.2 | 1.25 | 1.14 | – | – | – | – | – | 0.721 | 1.03 | 0.721 | 0.809 | 0.535 | – | – | – | – | –
LC-2-ad | 0.897 | 0.836 | 0.911 | 1.06 | 1.08 | 0.9 | 0.908 | 0.806 | – | 0.899 | 0.998 | 0.978 | 0.924 | 0.904 | 0.973 | 0.265 | 0.285 | 0.275 | 0.266 | 0.278
LCLC-97TM1 | 0.97 | 1.01 | 0.935 | 0.775 | 0.934 | 0.557 | 0.614 | 0.508 | 0.447 | 0.421 | 0.672 | 0.825 | 1.1 | – | 0.869 | 0.216 | 0.173 | 0.201 | – | 0.145
LCLC-103H | 0.89 | 0.672 | 0.817 | 0.84 | 1.02 | 0.458 | 0.487 | 0.473 | 0.428 | 0.457 | – | – | – | – | – | 0.452 | 0.49 | 0.467 | 0.48 | 0.428
LK-2 | 1.04 | 1.12 | 0.981 | 0.928 | 1.16 | 0.213 | 0.226 | 0.188 | 0.24 | 0.236 | 0.836 | 1.01 | 0.758 | 0.735 | 0.932 | 0.259 | 0.322 | 0.255 | 0.22 | 0.202
LOU-NH91 | 0.931 | 0.877 | 0.988 | 1.02 | 0.972 | 0.742 | 0.76 | 0.743 | 0.716 | 0.732 | 0.798 | 0.813 | 0.776 | 0.749 | 0.767 | 0.422 | 0.393 | 0.425 | 0.347 | 0.361
LU99A | 0.901 | 0.943 | 0.766 | 0.768 | 0.747 | 0.335 | 0.329 | 0.276 | 0.293 | 0.286 | 1.08 | 0.909 | 0.938 | 0.984 | 1.12 | 0.191 | 0.216 | 0.173 | 0.187 | 0.191
NCI-H441 | 1.43 | 1.2 | 0.826 | 0.937 | 0.968 | 0.617 | 0.647 | 0.538 | 0.675 | 0.579 | – | – | – | – | – | 0.256 | 0.272 | 0.269 | 0.292 | 0.244
NCI-H522 | – | – | – | – | – | 0.784 | 0.658 | 0.74 | 0.669 | 0.674 | – | – | – | – | – | 0.874 | 1.04 | 0.818 | 0.793 | 1.05
NCI-H727 | 1.15 | 1.13 | 0.882 | 0.876 | 0.897 | 0.805 | 0.474 | 0.464 | 0.588 | 0.592 | 0.874 | 0.779 | 0.801 | 0.728 | 0.947 | – | – | – | – | –
NCI-H1299 | 1.06 | 1.11 | 1.06 | 1.1 | 1.09 | – | – | – | – | – | 1.02 | 0.975 | 0.967 | 0.936 | 0.898 | – | – | – | – | –
NCI-H1623 | 0.985 | 0.788 | 0.997 | 0.805 | 0.749 | 0.45 | 0.421 | 0.394 | 0.435 | 0.423 | – | – | – | – | – | – | – | – | – | –
NCI-H1648 | – | – | – | – | – | 0.289 | 0.234 | 0.274 | 0.275 | 0.257 | – | – | – | – | – | – | 0.758 | 0.712 | 0.807 | 0.529
NCI-H1703 | 0.38 | 0.391 | 0.386 | 0.329 | 0.362 | – | – | – | – | – | 1.06 | 1.06 | 0.866 | 0.831 | 1.1 | – | – | – | – | –
NCI-H1792 | – | – | – | – | – | 0.725 | 0.718 | 0.705 | 0.742 | 0.75 | 0.806 | 0.893 | 0.87 | 0.98 | 0.973 | 1.03 | 0.711 | 0.721 | 0.899 | 0.919
NCI-H2342 | 1.14 | 1.04 | 0.893 | 0.998 | 1.01 | 0.564 | 0.629 | 0.564 | 0.616 | 0.587 | – | – | – | – | – | 0.78 | 0.742 | 0.775 | 0.768 | 0.679
SW 900 | 1.01 | 1.06 | 0.671 | 0.834 | 1.06 | 0.496 | 0.584 | 0.601 | 0.353 | 0.625 | – | – | – | – | – | 0.51 | 0.459 | – | 0.506 | 0.485

From the supplement of paper PMC10307832
